Measured values as given in patent US12083165B2, “Thymosin alpha 1 for use in treatment of cystic fibrosis” (SciClone Pharmaceuticals International (SG) PTE. LTD., priority 2015, dated 2024).

Legend:
[1] = biological target: T1, CFTR (Homo sapiens, UniProt P13569, DEL508-508); test: CFTR protein expression (band C) in HBE cells from CF patients; type: cell-based; conditions: 100 ng/ml Tα1 for 24 hours, cells from 5 CF patients
T1 construct: endogenous in cells; host or cells: primary HBE cells from lung transplants of CF patients
T1 sequence (P13569 with tags, fused parts or gaps DEL508-508): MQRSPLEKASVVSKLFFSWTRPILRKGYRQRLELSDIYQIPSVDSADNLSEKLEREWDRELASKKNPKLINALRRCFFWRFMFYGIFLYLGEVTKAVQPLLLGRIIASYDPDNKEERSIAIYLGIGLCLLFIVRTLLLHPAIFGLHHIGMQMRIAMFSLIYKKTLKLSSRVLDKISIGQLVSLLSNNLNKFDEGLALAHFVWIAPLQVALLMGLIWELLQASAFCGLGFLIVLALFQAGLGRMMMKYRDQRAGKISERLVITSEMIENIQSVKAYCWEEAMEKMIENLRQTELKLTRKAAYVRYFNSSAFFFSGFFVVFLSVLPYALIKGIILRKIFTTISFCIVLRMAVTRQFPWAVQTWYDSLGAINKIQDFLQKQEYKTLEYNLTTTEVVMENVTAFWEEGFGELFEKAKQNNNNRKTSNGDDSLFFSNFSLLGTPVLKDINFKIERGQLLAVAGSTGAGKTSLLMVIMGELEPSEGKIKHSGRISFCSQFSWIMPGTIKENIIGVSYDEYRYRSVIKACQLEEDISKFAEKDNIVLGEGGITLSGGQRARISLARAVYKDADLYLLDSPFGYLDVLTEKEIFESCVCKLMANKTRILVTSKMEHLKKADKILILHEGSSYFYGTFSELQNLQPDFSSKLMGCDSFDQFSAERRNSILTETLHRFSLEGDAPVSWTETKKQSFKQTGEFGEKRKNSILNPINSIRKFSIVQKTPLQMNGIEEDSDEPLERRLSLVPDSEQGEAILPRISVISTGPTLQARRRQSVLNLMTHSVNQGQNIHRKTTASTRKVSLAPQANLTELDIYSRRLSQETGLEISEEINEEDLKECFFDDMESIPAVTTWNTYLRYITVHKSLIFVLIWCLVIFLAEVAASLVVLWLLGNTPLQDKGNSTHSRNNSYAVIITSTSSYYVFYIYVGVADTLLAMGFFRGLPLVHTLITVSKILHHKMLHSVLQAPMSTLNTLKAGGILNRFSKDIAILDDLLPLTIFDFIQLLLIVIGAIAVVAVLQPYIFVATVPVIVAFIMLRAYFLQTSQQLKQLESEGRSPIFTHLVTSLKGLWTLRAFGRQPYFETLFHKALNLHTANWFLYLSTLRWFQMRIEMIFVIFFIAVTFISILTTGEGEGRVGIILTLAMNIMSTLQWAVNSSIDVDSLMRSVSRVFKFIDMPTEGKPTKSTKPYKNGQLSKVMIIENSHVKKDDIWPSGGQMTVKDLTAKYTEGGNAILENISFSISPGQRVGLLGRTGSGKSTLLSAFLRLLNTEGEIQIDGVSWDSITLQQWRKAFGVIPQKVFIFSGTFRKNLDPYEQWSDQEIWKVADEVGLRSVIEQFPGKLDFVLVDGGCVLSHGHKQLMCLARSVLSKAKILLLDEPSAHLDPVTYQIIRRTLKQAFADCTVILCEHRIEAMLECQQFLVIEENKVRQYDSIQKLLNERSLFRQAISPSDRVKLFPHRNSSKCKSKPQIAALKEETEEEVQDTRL
Protocol: Cells. Cell Lines and Cell Culture—Human bronchial epithelial (HBE) cells, homozygous for the […] mutation and its isogenic wild-type were obtained from lung transplants (CF patients) or lung resections (non-CF patients) (kindly provided by L J Galietta within the Italian Cystic Fibrosis Foundation). Cells were maintained at 37° C. in a humidified incubator in an atmosphere containing 5% CO2, and the experiments were done 5 days after plating (21, 22). Stable lentiviral-based transduction of the parental CFBE41o− cells (ΔF508/ΔF508), originally immortalized and characterized by Dr. D. Gruenert and co-workers (32) with either WT-CFTR or ΔF508-CFTR, was performed by Tranzyme, Inc. (Birmingham, AL). […]
CFTR Immunoblot Analysis. […] LiteAblotPlus chemiluminescence substrate (Euroclone S.p.A.), using ChemiDoc™ XRS+ Imagig system (Bio-Rad Laboratories) and blot quantification was obtained by densitometry image analysis using Image Lab 3.1.1 software (Bio-Rad).
The SV40 transformed CF airway epithelial cell line (CFBE41o−), homozygous for the ΔF508-CFTR mutation, was used (32). […] CFTR bands were quantified by densitometry and expressed as the C/B ratio. […]

[2] = test system: TMEM16A; test: TMEM16A mRNA expression by RT-PCR in HBE cells from control or CF patients; type: cell-based, human; conditions: 100 ng/ml
Protocol: Reverse transcriptase-polymerase chain reaction (RT-PCR). Total RNA extraction and synthesis and PCR of cDNA were done on total lung cells as described (21, 22). Amplification efficiencies were validated and normalized against Gapdh. The thermal profile for SYBR Green real-time PCR was at 95° C. for 3 min, followed by 40 cycles of denaturation for 30 s at 95° C. and an annealing/extension step of 30 s at 60° C. Each data point was examined for integrity by analysis of the amplification plot. The mRNA-normalized data were expressed as relative mRNA in treated cells compared to that of unstimulated cells.
Pharmacological correction of the ion transport defect by targeting of mutant CFTR, or alternative ion channels that may compensate for CFTR dysfunction, has long been considered as an attractive approach to a causal therapy of CF (37). […] Activation of TMEM16A with pharmacological agents could circumvent the primary defect in CF, irrespective of CFTR genotype (40). […] Based upon these findings, whether TMEM16A expression was induced by Tα1 on HBE cells from control or CF patients has been evaluated. To this purpose cells have been exposed to 100 ng/ml of Tα1 up to 24 hours and assessed TMEM16A mRNA expression by RT-PCR on total RNA from cells.

Substance: Ac-Ser-Asp-Ala-Ala-Val-Asp-Thr-Ser-Ser-Glu-Ile-Thr-Thr-Lys-Asp-Leu-Lys-Glu-Lys-Lys-Glu-Val-Val-Glu-Glu-Ala-Glu-Asn-O (Ac-SDAAVDTSSEITTKDLKEKKEVVEEAEN-OH; not fully specified; printed as Ac-Ser-Asp-Ala-Ala-Val-Asp-Thr-Ser-Ser-Glu-Ile-Thr-Thr-Lys-Asp-Leu-Lys-Glu-Lys-Lys-Glu-Val-Val-Glu-Glu-Ala-Glu-Asn-O; listed as Homo sapiens) [Tα1, naturally occurring polypeptide of 28 amino acid; supplied as purified sterile, lyophilized, acetylated polypeptide]
- CF patients whose HBE cells showed increased expression of CFTR (band C) [1]: 3 patients
- TMEM16A expression ([2]; CF HBE cells, after 4 hours): markedly increased
- TMEM16A expression ([2]; CF HBE cells, at 24 hours): remains elevated
- TMEM16A expression ([2]; control HBE cells, after 4 hours): markedly increased
- TMEM16A expression ([2]; control HBE cells, at 24 hours): returned to baseline levels
